Laboratory results taken from patent US20170215424A1 (SUMITOMO CHEMICAL COMPANY, LIMITED, priority 2014, published 2017).

Key:
Assay type in all cases: in vivo
Blattella germanica = experiment: Test Example 1: spray knockdown test on Blattella germanica; details: 0.25 h, 10 vermin, oil solution 2.0% w/v, 1.5 ml sprayed, within 15 minutes, read-out: knockdown ratio of test vermin within 15 minutes
Description: (§1) A formulation containing each of the present amide compounds (1), (2), (4), (8), (12), (13), (14), (15), (16), (18), (20), (24), (25), (27) and (28) prepared in accordance with Formulation Example 7 was diluted with an isopropyl alcohol/deodorized kerosine=1/9 mixed liquid so that the active ingredient concentration became 2.0% w/v, to prepare a drug solution for a test.
Ten vermin of Blattella germanica (male female each five vermin) were allowed to release in a container for a test in which a butter was applied on an inner wall (diameter 8.75 cm, height 7.5 cm, bottom face covered with 16 mesh wire net), and the container was arranged on a bottom of a chamber for a test (bottom surface: 46 cm×46 cm, height: 70 cm). From a height of 60 cm from an upper side of the container, 1.5 ml of the drug solution for a test was sprayed using a spray gun (spraying pressure 0.42 kg/cm^2). Thirty seconds after spraying, the container was taken out from the chamber for a test, the number of vermin which had been knocked down was counted for 15 minutes with time, and a knockdown ratio was obtained. The knockdown ratio was calculated by the following expression.
(§2) Knockdown ratio (%)=(number of knocked down vermin/number of test vermin)×100

Culexpipienspallens = experiment: Test Example 3: spray knockdown test on Culexpipienspallens imagoes; details: 0.25 h, oil solution 0.1% w/v, 0.5 ml sprayed, within 15 minutes, read-out: knockdown ratio of the test vermin within 15 minutes
Description: as §1, with “(4), (5), (6), (7),” for “(4),”, “(8), (9), (10),” for “(8),”, “(19), (21), (22),” for “(20),”, “(25), (26) and” for “(25),”, “(27)” for “(27) and (28)”, “0.1%” for “2.0%”
Ten imagoes of Culexpipienspallens were allowed to release in a polyethylene cup (bottom surface diameter 10.6 cm), and the cup was covered with a 16 mesh nylon gauze. The polyethylene cup was arranged on a bottom of a chamber for a test (bottom surface: 46 cm×46 cm, height: 70 cm). From a height of 30 cm from an upper surface of the polyethylene cup, 0.5 ml of the drug solution for a test was sprayed using a spray gun (spraying pressure 0.4 kg/cm^2). After spraying, the cup was immediately taken out from the chamber for a test, the number of knocked down vermin was counted for 15 minutes with time, and a knockdown ratio was obtained. The knockdown ratio was calculated by the following expression.
as §2

Adoxophyesoranafasciata = experiment: Test Example 8: apple seedling spray test on first instar larvae of Adoxophyesoranafasciata; details: first instar larvae of Adoxophyesoranafasciata on apple seedlings; 500 ppm spray, 20 ml; seven days after spraying
Description: A formulation of the present amide compound (9) prepared in accordance with Formulation Example 15 was diluted with water so that the active ingredient concentration became 500 ppm, to prepare a spray solution for a test. On the other hand, 20 ml of the spray solution for a test was spraying-treated on each of apple seedlings (28 days after seeding, tree height about 15 cm) planted in a plastic cup. After the drug solution which had spray-treated on the apple was air-dried to an extent that the drug solution was dried, about 30 first instar larvae of Adoxophyesoranafasciata were released. Seven days after spraying, the number of live vermin on an apple seedling was investigated, and a controlling value was obtained according to the following expression. Controlling value (%)={1−(Cb×Tai)/(Cai×Tb)}×100 In addition, letters in the expression indicate the following meanings. Cb: Number of vermin before treatment of non-treated section Cai: Number of vermin at observation of non-treated section Tb: Number of vermin before treatment of treated-section Tai: Number of vermin at observation of treated-section

Spodopteralitura = experiment: Test Example 7: cabbage spray test on fourth instar larvae of Spodopteralitura; details: 500 ppm spray, 20 ml/cup, after 4 days
Description: A formulation containing the present amide compound (25) prepared in accordance with Formulation Example 15 was diluted with water so that active ingredient concentration became 500 ppm, to preparer a spray solution for a test. On the other hand, a cabbage was planted in a polyethylene cup, and grown until a third true leaf or a fourth true leaf developed. On the cabbage, the spray solution for a test was sprayed at a rate of 20 ml/cup. After the drug solution which had been spraying-treated on the cabbage was dried, ten fourth instar larvae of Spodopteralitura were parasitized. The number of live vermin of Spodopteralitura on a cabbage leaf was investigated after 4 days, and a controlling value was obtained according to the following expression. Controlling value (%)={1−(Cb×Tai)/(Cai×Tb)}×100 In addition, letters in the equation represent the following meanings. Cb: Number of vermin before treatment of non-treated section Cai: Number of vermin at observation of non-treated section Tb: Number of vermin before treatment of treated-section Tai: Number of vermin at observation of treated-section

Structure (SMILES)	pest or weed control at 2 % strength (Blattella germanica) [%]	pest or weed control at 0.1 % strength (Culexpipienspallens) [%]	controlling value (Adoxophyesoranafasciata) [%]	controlling value (Spodopteralitura) [%]
O=C(NCC1CCOC1)C1=COC(COCc2ccccc2)CC1 (stereo not drawn)	≥ 80	–	–	–
CCCCC1CC(C(=O)NCC2CCOC2)=NO1 (stereo not drawn) [present amide compound (1), N-(tetrahydrofuran-3-ylmethyl)-5-butyl-4,5-dihydroisoxazole-3-carboxamide]	≥ 80	≥ 80	–	–
CCCCCC1CC(C(=O)NCC2CCOC2)=NO1 (stereo not drawn) [present amide compound (2), N-(tetrahydrofuran-3-ylmethyl)-5-pentyl-4,5-dihydroisoxazole-3-carboxyamide]	≥ 80	≥ 80	–	–
O=C(NCC1CCOC1)C1=NOC(CCc2ccccc2)C1 (stereo not drawn) [present amide compound (4), N-(tetrahydrofuran-3-ylmethyl)-5-phenethyl-4,5-dihydroisoxazole-3-carboxamide]	≥ 80	≥ 80	–	–
O=C(NCC1CCOC1)C1=NOC(COc2ccccc2)C1 (stereo not drawn) [present amide compound (5), N-(tetrahydrofran-3-ylmethyl)-5-(phenoxymethyl)-4,5-dihydro isoxazole-3-carboxamide]	–	≥ 80	–	–
O=C(NCC1CCOC1)C1=NOC(CCOc2ccccc2)C1 (stereo not drawn) [present amide compound (6), N-(tetrahydrofran-3-ylmethyl)-5-(2-phenoxyethyl)-4,5-dihydroisoxazole-3-carboxamide]	–	≥ 80	–	–
O=C(NCC1CCOC1)C1=NOC(CCCOc2ccccc2)C1 (stereo not drawn) [present amide compound (7), N-(tetrahydrofran-3-ylmethyl)-5-(3-phenoxypropyl)-4,5-dihydroisoxazole-3-carboxamide]	–	≥ 80	–	–
O=C(NCC1CCOC1)C1=NOC(CCCCOc2ccccc2)C1 (stereo not drawn) [present amide compound (8), N-(tetrahydrofuran-3-ylmethyl)-5-(4-phenoxybutyl)-4,5-dihydroisoxazole-3-carboxamide]	≥ 80	≥ 80	–	–
O=C(NCC1CCOC1)C1=NOC(CCCCCOc2ccccc2)C1 (stereo not drawn) [present amide compound (9), N-(tetrahydrofuran-3-ylmethyl)-5-(5-phenoxypentyl)-4,5-dihydroisoxazole-3-carboxamide]	–	≥ 80	100	–
O=C(NCC1CCOC1)C1=NOC(CCCCCCOc2ccccc2)C1 (stereo not drawn) [present amide compound (10), N-(tetrahydrofuran-3-ylmethyl)-5-(6-phenoxyhexyl)-4,5-dihydroisoxazole-3-carboxamide]	–	≥ 80	–	–
O=C(NCC1CCOC1)C1=NOC(CCOCc2ccccc2)C1 (stereo not drawn) [present amide compound (12), N-(tetrahydrofuran-3-ylmethyl)-5-(2-benzyloxyethyl)-4,5-dihydroisoxazole-3-carboxamide]	≥ 80	≥ 80	–	–
O=C(NCC1CCOC1)C1=NOC(CCCOCc2ccccc2)C1 (stereo not drawn) [present amide compound (13), N-(tetrahydrofuran-3-ylmethyl)-5-(3-benzyloxypropyl)-4,5-dihydroisoxazole-3-carboxamide]	≥ 80	≥ 80	–	–
O=C(NCC1CCOC1)C1=NOC(CCCCOCc2ccccc2)C1 (stereo not drawn) [present amide compound (14), N-(tetrahydrofuran-3-ylmethyl)-5-(4-benzyloxybutyl)-4,5-dihydroisoxazole-3-carboxamide]	≥ 80	≥ 80	–	–
O=C(NCC1CCOC1)C1=NOC(CCCCCOCc2ccccc2)C1 (stereo not drawn) [present amide compound (15), N-(tetrahydrofuran-3-ylmethyl)-5-(5-benzyloxypentyl)-4,5-dihydroisoxazole-3-carboxamide]	≥ 80	≥ 80	–	–
O=C(NCC1CCOC1)C1=NOC(CCCCCCOCc2ccccc2)C1 (stereo not drawn) [present amide compound (16), N-(tetrahydrofuran-3-ylmethyl)-5-(6-benzyloxyhexyl)-4,5-dihydroisoxazole-3-carboxamide]	≥ 80	≥ 80	–	–
O=C(NCC1CCOC1)C1=NOC(CCCOCCc2ccccc2)C1 (stereo not drawn) [present amide compound (18), N-(tetrahydrofuran-3-ylmethyl)-5-(3-phenethyloxypropyl)-4,5-dihydroisoxazole-3-carboxamide]	≥ 80	≥ 80	–	–
O=C(NCC1CCOC1)C1=NOC(COc2ccc3ccccc3c2)C1 (stereo not drawn) [present amide compound (19), N-(tetrahydrofuran-3-ylmethyl)-5-(2-naphthyloxymethyl)-4,5-dihydroisoxazole-3-carboxamide]	–	≥ 80	–	–
O=C(NCC1CCOC1)C1=NOC(COCc2ccc3ccccc3c2)C1 (stereo not drawn) [present amide compound (20), N-(tetrahydrofuran-3-ylmethyl)-5-(2-naphthylmethyloxymethyl)-4,5-dihydroisoxazole-3-carboxamide]	≥ 80	–	–	–
O=C(NCC1CCOC1)C1=NOC(CCCOCc2ccc3ccccc3c2)C1 (stereo not drawn) [present amide compound (21), N-(tetrahydrofuran-3-ylmethyl)-5-(2-naphthylmethyloxypropyl)-4,5-dihydroisoxazole-3-carboxamide]	–	≥ 80	–	–
CC1C(C(=O)NCC2CCOC2)=NOC1COc1ccccc1 (stereo not drawn) [present amide compound (22), N-(tetrahydrofuran-3-ylmethyl)-4-methyl-5-phenoxymethyl-4,5-dihydroisoxazole-3-carboxamide]	–	≥ 80	–	–
O=C(NCC1CCOC1)C1=NOC(COc2ccccc2)CC1 (stereo not drawn) [present amide compound (24), N-(tetrahydrofuran-3-ylmethyl)-6-phenoxymethyl-5,6-dihydro-4H-[1,2]oxazine-3-carboxamide]	≥ 80	≥ 80	–	–
O=C(NCC1CCOC1)C1=NOC(COc2cccc(Cl)c2)CC1 (stereo not drawn) [present amide compound (25), N-(tetrahydrofuran-3-ylmethyl)-6-(3-chloro-phenoxymethyl)-5,6-dihydro-4H-[1,2]oxazine-3-carboxamide]	≥ 80	≥ 80	–	≥ 80
O=C(NCC1CCOC1)C1=NOC(COCc2ccccc2)CC1 (stereo not drawn) [present amide compound (26), N-(tetrahydrofuran-3-ylmethyl)-6-benzyloxymethyl-5,6-dihydro-4H-[1,2]oxazine-3-carboxamide]	–	≥ 80	–	–
O=C(NCC1CCOC1)C1=COC(COc2ccccc2)CC1 (stereo not drawn) [present amide compound (27), N-(tetrahydrofuran-3-ylmethyl)-6-phenoxymethyl-5,6-dihydro-4H-pyrane-3-carboxamide]	≥ 80	≥ 80	–	–
